Where two headings read alike, the source gives them in different places.
How the values were obtained:
HCoV-229E = test: Cytopathic effect (CPE) reduction assay with HCoV-229E in HEL cells; type: cell-based, human coronavirus 229E; conditions: for EC50: Human coronavirus 229E, 120 h, HCoV-229E-infected HEL cells, five days at 35 °C; for Selectivity Index MTS: ratio of CC50 to EC50-MTS; for Selectivity Index MTS / Selectivity Index Microscopy: only values of 10 or higher shown; for Selectivity Index Microscopy: ratio of MCC to EC50-microscopy
[1] = tested on: human embryonic lung (HEL) fibroblast cells; conditions: mock-infected HEL cells; microscopically visible alterations in cell morphology
in vitro = conditions: human
[2] = protection against virus-induced CPE by MTS cell viability assay, read-out: Antiviral EC50 MTS
[3] = protection against virus-induced CPE by microscopic scoring, read-out: Antiviral EC50 Microscopy

Row | Structure (SMILES) | EC50 (HCoV-229E; [2]) [µM] | EC50 (HCoV-229E; [3]) [µM] | Cytotoxicity MCC (minimal cytotoxic concentration) [1] [µM] | CC50 (in vitro) [µM] | Selectivity Index MTS (HCoV-229E) | Selectivity Index Microscopy (HCoV-229E)
1 | COC(=O)C[C@H](NC(=O)OC(C)(C)C)C(=O)N(Cc1ccccc1)C1(C(=O)NC2CCCCC2)CCN(Cc2ccccc2)CC1 [Compound 16, Methyl(S)-4-(benzyl(1-benzyl-4-cyclohexylcarbamoylpiperidin-4-yl)amino)-3-tert-butoxycarbonylamino-4-oxobutanoate] | 10 | 16 ± 3 | ≥40 | 42 ± 4 |  | 
2 | CC(C)(C)OC(=O)NC(Cc1ccc(Cl)cc1)C(=O)N(Cc1ccccc1)C1(C(=O)NCc2ccccc2)CCN(Cc2ccccc2)CC1 (centres unmarked) [Compound 50, Tert-butyl(1-(benzyl(1-benzyl-4-benzylcarbamoylpiperidin-4-yl)amino)-3-(4-chlorophenyl)-1-oxopropan-2-yl)carbamate] | 9.7 ± 0.4 | 10 | ≥100 | > 100 | ≥10 | ≥10
3 | COC(=O)C[C@H](NC(=O)OC(C)(C)C)C(=O)N(Cc1ccc(F)cc1)C1(C(=O)NCc2ccccc2)CC[N+](C)(Cc2ccccc2)CC1 (some centres unmarked) [Compound 8] | > 100 | > 100 | >100 | > 100 |  | 
4 | COC(=O)C[C@H](NC(=O)OCc1ccccc1)C(=O)N(Cc1ccccc1)C1(C(=O)NCc2ccccc2)CCN(CCc2ccc(F)cc2)CC1 [Compound 56, Methyl(S)-4-(benzyl(4-benzylcarbamoyl-1-(4-fluorophenethyl)piperidin-4-yl)amino)-3-benzyloxycarbonylamino-4-oxobutanoate] | 6 ± 1.9 | 7.6 ± 1.8 | 32 | 23 ± 3 |  | 
5 | COC(=O)C[C@H](NC(=O)OC(C)(C)C)C(=O)N(Cc1ccccc1F)C1(C(=O)NCc2ccccc2)CCN(Cc2ccccc2)CC1 [Compound 26] | 15 ± 2 | 12 ± 1 | 100 | 44 ± 1 |  | 
6 | CC(C)(C)OC(=O)N[C@@H](CC(=O)O)C(=O)N(Cc1ccc(F)cc1)C1(C(=O)NCc2ccccc2)CCN(Cc2ccccc2)CC1 [Compound 43] | > 100 | > 100 | >100 | > 100 |  | 
7 | COc1ccc(CC(NC(=O)OC(C)(C)C)C(=O)N(Cc2ccccc2)C2(C(=O)NCc3ccccc3)CCN(Cc3ccccc3)CC2)cc1 (centres unmarked) [Compound 51, Tert-butyl(1-(benzyl(1-benzyl-4-benzylcarbamoylpiperidin-4-yl)amino)-3-(4-methoxyphenyl)-1-oxopropan-2-yl)carbamate] | 4.8 ± 0.4 | 8.2 ± 1.9 | ≥100 | > 100 |  | ≥12
8 | COC(=O)C[C@H](NC(=O)OCc1ccccc1)C(=O)N(CCNc1ccccc1)C1(C(=O)NCc2ccccc2)CCN(Cc2ccccc2)CC1 [Compound 57, Methyl(S)-4-((1-benzyl-4-benzylcarbamoylpiperidin-4-yl)(2-(phenylamino)ethyl)amino)-3-benzyloxycarbonylamino-4-oxobutanoate] | 7.1 ± 0.9 | 10 | 40 | 51 ± 9 |  | 
9 | COc1ccc(CN2CCC(C(=O)NCc3ccccc3)(N(Cc3ccccc3)C(=O)C(Cc3ccccc3)NC(=O)OC(C)(C)C)CC2)cc1 (centres unmarked) [Compound 62, Tert-butyl(1-(benzyl(4-benzylcarbamoyl-1-(4-methoxybenzyl)piperidin-4-yl)amino)-1-oxo-3-phenylpropan-2-yl)carbamate] | 4.3 ± 0.4 | 5.9 ± 1.8 | 40 | 28 |  | 
10 | CC(C)(C)OC(=O)N[C@@H](CC(N)=O)C(=O)N(Cc1ccc(F)cc1)C1(C(=O)NCc2ccccc2)CCN(Cc2ccccc2)CC1 [Compound 41] | 64 ± 8 | 54 ± 4 | >100 | 82 ± 13 |  | 
11 | CC(C)(C)OC(=O)N[C@@H](CC(N)=O)C(=O)N(Cc1ccccc1)C1(C(=O)NCc2ccccc2)CCN(Cc2ccccc2)CC1 [Compound 42] | 16 ± 3 | 13 | 100 | 40 ± 6 |  | 
12 | COC(=O)C[C@H](NC(=O)OC(C)(C)C)C(=O)N(Cc1ccc(Cl)cc1)C1(C(=O)NCc2ccccc2)CCN(Cc2ccccc2)CC1 [Compound 25] | 3.2 ± 0.2 | 3.1 | 50 | 12 |  | 
13 | COC(=O)C[C@H](NC(=O)OC(C)(C)C)C(=O)N(Cc1ccc(F)cc1)C1(C(=O)NCc2ccccc2)CCN(C2CCCCC2)CC1 [Compound 6] | 14 ± 1 | 22 ± 9 | 100 | 85 ± 9 |  | 
14 | COC(=O)CC[C@H](NC(=O)OC(C)(C)C)C(=O)N(Cc1ccc(F)cc1)C1(C(=O)NCc2ccccc2)CCN(Cc2ccccc2)CC1 [Compound 40] | 11 ± 4 | 4.8 ± 1.7 | 100 | 50 ± 3 |  | 21
15 | CC(C)(C)OC(=O)NCC(=O)N(Cc1ccccc1)C1(C(=O)NCc2ccccc2)CCN(Cc2ccccc2)CC1 [Compound 39] | 15 ± 2 | 11 | 100 | 49 ± 1 |  | 
16 | COC(=O)C[C@H](NC(=O)OC(C)(C)C)C(=O)N(Cc1ccc(F)cc1)C1(C(=O)NCc2ccccc2)CCNCC1 [Compound 4] | 78 ± 14 | 50 ± 18 | 100 | 66 ± 7 |  | 
17 | COC(=O)C[C@H](NC(=O)OC(C)(C)C)C(=O)N(Cc1ccc(F)cc1)C1(C(=O)NC(C)(C)C)CCN(Cc2ccccc2)CC1 [Compound 12] | 11 | 11 | ≥100 | 77 |  | 
18 | COC(=O)C[C@H](NC(=O)OC(C)(C)C)C(=O)N(Cc1ccc(C)cc1)C1(C(=O)NCc2ccccc2)CCN(Cc2ccccc2)CC1 [Compound 22] | 4.3 ± 0.6 | 3.1 | 75 | 31 ± 10 |  | 24
19 | COC(=O)C[C@H](NC(=O)OC(C)(C)C)C(=O)N(CCNc1ccccc1)C1(C(=O)NCc2ccccc2)CCN(Cc2ccccc2)CC1 [Compound 29] | 3.2 ± 0.4 | 3 ± 0.1 | 75 | 36 ± 9 | 11 | 25
20 | COC(=O)C[C@H](NC(=O)OC(C)(C)C)C(=O)N(C1CC1)C1(C(=O)NCc2ccccc2)CCN(Cc2ccccc2)CC1 [Compound 21] | > 100 | 12 ± 0.4 | 50 | 14 ± 3 |  | 
21 | COC(=O)C[C@H](NC(=O)OC(C)(C)C)C(=O)NC1(C(=O)NCc2ccccc2)CCN(Cc2ccccc2)CC1 [Compound 18] | > 100 | 55 ± 16 | ≥100 | 48 ± 8 |  | 
22 | CC(C)(C)OC(=O)N[C@@H](Cc1c[nH]c2ccccc12)C(=O)N(Cc1ccccc1)C1(C(=O)NCc2ccccc2)CCN(Cc2ccccc2)CC1 [Compound 47] | 49 ± 12 | 57 ± 17 | >100 | > 100 |  | 
